# Data as given in US20140243286A1, “BROMODOMAIN LIGANDS CAPABLE OF DIMERIZING IN AN AQUEOUS SOLUTION, AND METHODS OF USING SAME” (Coferon, Inc., priority 2011, published 2014).
# Like-named read-outs stand apart in the source and are kept apart here.
# Legend:
# BRD2 = BRD2 (Homo sapiens, UniProt P25440); experiment: Fluorescence anisotropy (FA) binding assay, BRD2
# Experimental: (§1) Fluorescence Anisotropy (FA) Binding Assays.
# (§2) FA assays were performed as described in Chung et al., J. Med Chem., 2011 54(11): 3827-38 except that protein concentrations were 125 nM and plates were read on a Spectramax M5 plate reader.
# BRD3 = BRD3 (Homo sapiens, UniProt Q15059); experiment: Fluorescence anisotropy (FA) binding assay, BRD3
# Experimental: as §1, §2
# BRD4 = BRD4 (Homo sapiens, UniProt O60885); experiment: Fluorescence anisotropy (FA) binding assay, BRD4
# Experimental: as §1, §2
# [1] = BRD2, protein 125 nM, read-out: IC50 range (FA assay) BRD2, BRD-E monomers
# [2] = BRD3, protein 125 nM, read-out: IC50 range (FA assay) BRD3, BRD-E monomers
# [3] = BRD4, protein 125 nM, read-out: IC50 range (FA assay) BRD4, BRD-E monomers
# [4] = BRD2, protein 125 nM, read-out: IC50 range (FA assay) BRD2, BRD-N monomers
# [5] = BRD3, protein 125 nM, read-out: IC50 range (FA assay) BRD3, BRD-N monomers
# [6] = BRD4, protein 125 nM, read-out: IC50 range (FA assay) BRD4, BRD-N monomers
# Sequence of BRD3 (Q15059 whole entry): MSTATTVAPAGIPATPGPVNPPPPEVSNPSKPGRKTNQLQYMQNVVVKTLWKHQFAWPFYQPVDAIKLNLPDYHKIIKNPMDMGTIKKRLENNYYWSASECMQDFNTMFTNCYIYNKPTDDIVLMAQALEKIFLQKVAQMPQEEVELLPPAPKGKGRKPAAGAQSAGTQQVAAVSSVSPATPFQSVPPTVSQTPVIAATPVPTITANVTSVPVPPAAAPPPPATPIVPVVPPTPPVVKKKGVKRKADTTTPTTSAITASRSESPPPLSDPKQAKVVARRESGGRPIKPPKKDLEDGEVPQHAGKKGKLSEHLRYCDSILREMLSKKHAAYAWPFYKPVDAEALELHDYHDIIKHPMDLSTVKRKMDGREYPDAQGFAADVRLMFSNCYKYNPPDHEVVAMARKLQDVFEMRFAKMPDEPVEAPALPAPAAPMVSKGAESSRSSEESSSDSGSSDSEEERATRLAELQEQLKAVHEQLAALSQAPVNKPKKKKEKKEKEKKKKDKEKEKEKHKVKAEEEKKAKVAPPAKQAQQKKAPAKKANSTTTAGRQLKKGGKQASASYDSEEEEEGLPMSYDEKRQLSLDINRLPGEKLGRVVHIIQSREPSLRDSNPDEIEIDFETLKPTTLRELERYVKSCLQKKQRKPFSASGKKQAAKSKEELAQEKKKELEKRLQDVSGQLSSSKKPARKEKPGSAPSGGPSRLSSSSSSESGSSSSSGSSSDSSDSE
# Sequence of BRD2 (P25440 whole entry): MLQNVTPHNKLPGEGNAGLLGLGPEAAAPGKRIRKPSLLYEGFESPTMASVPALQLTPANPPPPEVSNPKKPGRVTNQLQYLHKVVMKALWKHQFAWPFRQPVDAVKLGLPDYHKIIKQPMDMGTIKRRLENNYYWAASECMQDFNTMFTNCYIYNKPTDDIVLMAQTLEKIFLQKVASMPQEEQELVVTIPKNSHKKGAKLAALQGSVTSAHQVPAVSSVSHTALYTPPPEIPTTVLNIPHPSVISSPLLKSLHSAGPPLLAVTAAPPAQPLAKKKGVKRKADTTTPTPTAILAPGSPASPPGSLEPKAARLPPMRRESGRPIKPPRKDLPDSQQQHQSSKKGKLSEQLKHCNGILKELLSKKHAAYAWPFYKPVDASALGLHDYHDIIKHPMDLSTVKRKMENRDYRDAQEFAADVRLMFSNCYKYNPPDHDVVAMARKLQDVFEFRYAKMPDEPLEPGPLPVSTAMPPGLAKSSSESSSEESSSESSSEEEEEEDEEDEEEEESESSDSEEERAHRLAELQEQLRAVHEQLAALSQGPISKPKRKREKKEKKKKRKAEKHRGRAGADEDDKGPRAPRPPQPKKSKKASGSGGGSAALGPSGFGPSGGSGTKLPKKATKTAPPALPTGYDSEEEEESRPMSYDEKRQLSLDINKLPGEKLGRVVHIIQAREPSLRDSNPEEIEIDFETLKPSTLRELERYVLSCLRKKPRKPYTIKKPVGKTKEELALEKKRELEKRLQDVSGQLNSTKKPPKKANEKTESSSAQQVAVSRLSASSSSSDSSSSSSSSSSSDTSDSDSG
Compound,IC50 (BRD2; [1]) [nM],IC50 (BRD3; [2]) [nM],IC50 (BRD4; [3]) [nM],IC50 (BRD2; [4]) [nM],IC50 (BRD3; [5]) [nM],IC50 (BRD4; [6]) [nM],other results
"CCNC(=O)C[C@@H]1N=C(c2ccc(Cl)cc2)c2cc(OCCNC(=O)c3cccc(B(O)O)c3)ccc2-n2c(C)nnc21 [BRD-E-21, (S)-(3-((2-((6-(4-chlorophenyl)-4-(2-(ethylamino)-2-oxoethyl)-1-methyl-4H-benzo[f][1,2,4]triazolo[4,3-a]diazepin-8-yl)oxy)ethyl)carbamoyl)phenyl)boronic acid]",50 to 1000,50 to 1000,50 to 1000,,,,
"CCNC(=O)C[C@@H]1N=C(c2ccc(Cl)cc2)c2cc(OCCNC(=O)c3ccc(B(O)O)cc3)ccc2-n2c(C)nnc21 [BRD-E-22, (S)-(4-((2-((6-(4-chlorophenyl)-4-(2-(ethylamino)-2-oxoethyl)-1-methyl-4H-benzo[f][1,2,4]triazolo[4,3-a]diazepin-8-yl)oxy)ethyl)carbamoyl)phenyl)boronic acid]",50 to 1000,50 to 1000,50 to 1000,,,,
"CCNC(=O)C[C@@H]1N=C(c2ccc(Cl)cc2)c2cc(OCCCNC(=O)c3cccc(B(O)O)c3)ccc2-n2c(C)nnc21 [BRD-E-23, (S)-(3-((3-((6-(4-chlorophenyl)-4-(2-(ethylamino)-2-oxoethyl)-1-methyl-4H-benzo[f][1,2,4]triazolo[4,3-a][1,4]diazepin-8-yl)oxy)propyl)carbamoyl)phenyl)boronic acid]",1000 to 30000,1000 to 30000,1000 to 30000,,,,
"CCNC(=O)C[C@@H]1N=C(c2ccc(Cl)cc2)c2cc(OCCCNC(=O)c3ccc(B(O)O)cc3)ccc2-n2c(C)nnc21 [BRD-E-24, (S)-(4-((3-((6-(4-chlorophenyl)-4-(2-(ethylamino)-2-oxoethyl)-1-methyl-4H-benzo[f][1,2,4]triazolo[4,3-a][1,4]diazepin-8-yl)oxy)propyl)carbamoyl)phenyl)-boronic acid]",1000 to 30000,50 to 1000,50 to 1000,,,,
"CCNC(=O)C[C@@H]1N=C(c2ccc(Cl)cc2)c2cc(OCCCCNC(=O)c3cccc(B(O)O)c3)ccc2-n2c(C)nnc21 [BRD-E-25, (S)-(3-((4-((6-(4-chlorophenyl)-4-(2-(ethylamino)-2-oxoethyl)-1-methyl-4H-benzo[f][1,2,4]triazolo[4,3-a][1,4]diazepin-8-yl)oxy)butyl)carbamoyl)phenyl)boronic acid]",1000 to 30000,1000 to 30000,1000 to 30000,,,,
"CCNC(=O)C[C@@H]1N=C(c2ccc(Cl)cc2)c2cc(OCCCCNC(=O)c3ccc(B(O)O)cc3)ccc2-n2c(C)nnc21 [BRD-E-26, (S)-(4-((4-((6-(4-chlorophenyl)-4-(2-(ethylamino)-2-oxoethyl)-1-methyl-4H-benzo[f][1,2,4]triazolo[4,3-a][1,4]diazepin-8-yl)oxy)butyl)carbamoyl)phenyl)boronic acid]",50 to 1000,50 to 1000,50 to 1000,,,,
"COc1ccc2c(c1)C(c1ccc(Cl)cc1)=N[C@@H](CC(=O)NCCNC(=O)/C=C/c1ccc(B(O)O)cc1)c1nnc(C)n1-2 [BRD-E-29, (4-((E)-3-((2-(2-((4S)-6-(4-chlorophenyl)-8-methoxy-1-methyl-4H-benzo[f][1,2,4]triazolo[4,3-a][1,4]diazepin-4-yl)acetamido)ethyl)amino)-3-oxoprop-1-en-1-yl)phenyl)boronic acid]",50 to 1000,50 to 1000,50 to 1000,,,,
"COc1ccc2c(c1)C(c1ccc(Cl)cc1)=N[C@@H](CC(=O)NCCNC(=O)c1cccc(-c3cccc(B(O)O)c3)c1)c1nnc(C)n1-2 [BRD-E-31, (3′-((2-(2-((4S)-6-(4-chlorophenyl)-8-methoxy-1-methyl-4H-benzo[f][1,2,4]triazolo[4,3-a][1,4]diazepin-4-yl)acetamido)ethyl)carbamoyl)-[1,1′-biphenyl]-3-yl)boronic acid]",50 to 1000,50 to 1000,50 to 1000,,,,
"COc1ccc2c(c1)C(c1ccc(Cl)cc1)=N[C@@H](CC(=O)NCCNC(=O)Cc1cccc(B(O)O)c1)c1nnc(C)n1-2 [BRD-E-38, (3-(2-((2-(2-((4S)-6-(4-chlorophenyl)-8-methoxy-1-methyl-4H-benzo[f][1,2,4]triazolo[4,3-a][1,4]diazepin-4-yl)acetamido)ethyl)amino)-2-oxoethyl)phenyl)boronic acid]",50 to 1000,50 to 1000,50 to 1000,,,,
"COc1ccc2c(c1)C(c1ccc(Cl)cc1)=N[C@@H](CC(=O)NCCNC(=O)c1ccc(O)c(O)c1)c1nnc(C)n1-2 [BRD-N-01, N-(2-(2-((4S)-6-(4-chlorophenyl)-8-methoxy-1-methyl-4H-benzo[f][1,2,4]triazolo[4,3-a][1,4]diazepin-4-yl)acetamido)ethyl)-3,4-dihydroxybenzamide]",,,,50 to 1000,50 to 1000,50 to 1000,
"COc1ccc2c(c1)C(c1ccc(Cl)cc1)=N[C@@H](CC(=O)NCCNC(=O)c1cccc(O)c1O)c1nnc(C)n1-2 [BRD-N-02, N-(2-(2-((4S)-6-(4-chlorophenyl)-8-methoxy-1-methyl-4H-benzo[f][1,2,4]triazolo[4,3-a][1,4]diazepin-4-yl)acetamido)ethyl)-2,3-dihydroxybenzamide]",,,,50 to 1000,50 to 1000,50 to 1000,
"COc1ccc2c(c1)C(c1ccc(Cl)cc1)=N[C@@H](CC(=O)NCCCNC(=O)c1ccc(O)c(O)c1)c1nnc(C)n1-2 [BRD-N-03, N-(3-(2-((4S)-6-(4-chlorophenyl)-8-methoxy-1-methyl-4H-benzo[f][1,2,4]triazolo[4,3-a][1,4]diazepin-4-yl)acetamido)propyl)-3,4-dihydroxybenzamide]",,,,50 to 1000,50 to 1000,50 to 1000,
"COc1ccc2c(c1)C(c1ccc(Cl)cc1)=N[C@@H](CC(=O)NCCCNC(=O)c1cccc(O)c1O)c1nnc(C)n1-2 [BRD-N-04, N-(3-(2-((4S)-6-(4-chlorophenyl)-8-methoxy-1-methyl-4H-benzo[f][1,2,4]triazolo[4,3-a][1,4]diazepin-4-yl)acetamido)propyl)-2,3-dihydroxybenzamide]",,,,,,,IC50 (BRD2): 50 to 1000 nM; IC50 (BRD3): 50 to 1000 nM; IC50 (BRD4): 50 to 1000 nM
"COc1ccc2c(c1)C(c1ccc(Cl)cc1)=N[C@@H](CC(=O)NCCCCNC(=O)c1ccc(O)c(O)c1)c1nnc(C)n1-2 [BRD-N-05, N-(4-(2-((4S)-6-(4-chlorophenyl)-8-methoxy-1-methyl-4H-benzo[f][1,2,4]triazolo[4,3-a][1,4]diazepin-4-yl)acetamido)butyl)-3,4-dihydroxybenzamide]",,,,,,,IC50 (BRD2): 50 to 1000 nM; IC50 (BRD3): 50 to 1000 nM; IC50 (BRD4): 50 to 1000 nM
"COc1ccc2c(c1)C(c1ccc(Cl)cc1)=N[C@@H](CC(=O)NCCCCNC(=O)c1cccc(O)c1O)c1nnc(C)n1-2 [BRD-N-06, N-(4-(2-((4S)-6-(4-chlorophenyl)-8-methoxy-1-methyl-4H-benzo[f][1,2,4]triazolo[4,3-a][1,4]diazepin-4-yl)acetamido)butyl)-2,3-dihydroxybenzamide]",,,,,,,IC50 (BRD2): 50 to 1000 nM; IC50 (BRD3): 1000 to 30000 nM; IC50 (BRD4): 50 to 1000 nM
"COc1ccc2c(c1)C(c1ccc(Cl)cc1)=N[C@@H](CC(=O)NCCCCCNC(=O)c1ccc(O)c(O)c1)c1nnc(C)n1-2 [BRD-N-07, N-(5-(2-((4S)-6-(4-chlorophenyl)-8-methoxy-1-methyl-4H-benzo[f][1,2,4]triazolo[4,3-a][1,4]diazepin-4-yl)acetamido)pentyl)-3,4-dihydroxybenzamide]",,,,50 to 1000,50 to 1000,50 to 1000,
"COc1ccc2c(c1)C(c1ccc(Cl)cc1)=N[C@@H](CC(=O)NCCCCCNC(=O)c1cccc(O)c1O)c1nnc(C)n1-2 [BRD-N-08, N-(5-(2-((4S)-6-(4-chlorophenyl)-8-methoxy-1-methyl-4H-benzo[f][1,2,4]triazolo[4,3-a][1,4]diazepin-4-yl)acetamido)pentyl)-2,3-dihydroxybenzamide]",,,,50 to 1000,50 to 1000,50 to 1000,
"COc1ccc2c(c1)C(c1ccc(Cl)cc1)=N[C@@H](CC(=O)NCc1ccc(O)c(O)c1)c1nnc(C)n1-2 [BRD-N-09, (S)-2-(6-(4-chlorophenyl)-8-methoxy-1-methyl-4H-benzo[f][1,2,4]triazolo[4,3-a][1,4]diazepin-4-yl)-N-(3,4-dihydroxybenzyl)acetamide]",,,,50 to 1000,50 to 1000,50 to 1000,
"COc1ccc2c(c1)C(c1ccc(Cl)cc1)=N[C@@H](CC(=O)NCCc1ccc(O)c(O)c1)c1nnc(C)n1-2 [BRD-N-10, (S)-2-(6-(4-chlorophenyl)-8-methoxy-1-methyl-4H-benzo[f][1,2,4]triazolo[4,3-a][1,4]diazepin-4-yl)-N-(3,4-dihydroxyphenethyl)acetamide]",,,,50 to 1000,50 to 1000,50 to 1000,
"COc1ccc2c(c1)C(c1ccc(Cl)cc1)=N[C@@H](CC(=O)NCc1cccc(O)c1O)c1nnc(C)n1-2 [BRD-N-11, (S)-2-(6-(4-chlorophenyl)-8-methoxy-1-methyl-4H-benzo[f][1,2,4]triazolo[4,3-a][1,4]diazepin-4-yl)-N-(2,3-dihydroxybenzyl)acetamide]",,,,50 to 1000,50 to 1000,50 to 1000,
"COc1ccc2c(c1)C(c1ccc(Cl)cc1)=N[C@@H](CC(=O)NCCc1cccc(O)c1O)c1nnc(C)n1-2 [BRD-N-12, (S)-2-(6-(4-chlorophenyl)-8-methoxy-1-methyl-4H-benzo[f][1,2,4]triazolo[4,3-a][1,4]diazepin-4-yl)-N-(2,3-dihydroxyphenethyl)acetamide]",,,,50 to 1000,50 to 1000,50 to 1000,
